{"source": "paper PMC10285648", "about": "“iTAG an optimized IMiD-induced degron for targeted protein degradation in human and murine cells” (iScience, 2023)", "assay_type_in_all_cases": "cell-based, human", "key": {"cMYC-EGFP-DCD19": {"tested_on": "cMYC-EGFP-DCD19", "assay": "Flow cytometry of EGFP signal, cMYC-EGFP-DCD19 in HMEC", "conditions": "10uM, 4h", "description": "(§1) To systematically delineate the optimal DCD/degrader combination for targeted protein degradation, we undertook a matrix approach evaluating all 23 DCD tags against 6 small molecule degraders. […] To control for any potential off-target effects of the IMiD/CeLMOD agents that could indirectly affect the target of interest, we designed controls in which the specific DCD and the EGFP sequences were interspaced by a P2A ribosomal “skipping” sequence,[32] leading to separate translation of the DCD and the target protein (Figure 1A). These constructs were then inserted into a doxycycline-inducible lentiviral vector system and stably expressed in hTERT immortalized human mammary epithelial cells (HMEC), a suitable model to assess the functional consequences of cMYC degradation. cMYC was tagged at the C-terminus end for the initial screening experiments.\n(§2) Figure 1 Design and experimental evaluation of the DCD tags (A) Representation of the experimental pipeline used to evaluate the different DCD constructs. […] Median EGFP intensity was measured in each condition using flow cytometry (3 independent experiments, normalized to the control and represented as mean ± SD). […] The protein lysates were probed for cMYC levels using western blotting. […] Target loss was evaluated either by measuring EGFP median intensity using flow cytometry or western blotting for cMYC protein (3 independent experiments, normalized to the control and represented as mean ± SD). […] Target loss was evaluated as in (D) (3 independent experiments, normalized to the control and represented as mean ± SD). […] Protein lysates were collected and probed for cMYC and p21 using western blotting. […] Protein lysates were collected and probed for cMYC and p21 using western blotting. […] These were left out as controls with no test substance.\n(§3) Following degrader treatment cells were collected and DAPI was added to the cell suspension at 1 μg/mL to allow the exclusion of dead cells. EGFP signal was measured using BD LSR II flow cytometer (BD Biosciences). FlowJo 10 Software (FlowJo) was used for data processing."}, "cMYC-EGFP-DCD23": {"tested_on": "cMYC-EGFP-DCD23", "assay": "Degradation of cMYC-EGFP-DCD23 in HMEC (flow cytometry, western blotting)", "conditions": "co-treatment with CC220 (10μM), 4h, western blotting", "description": "as §1, §2, §3\n(§4) Cells were lysed with SDS lysis buffer (2% SDS, 10% Glycerol, 50mM Tris pH 6.8) and boiled at 95°C for 30min. Protein concentration was measured using Pierce BCA Protein Assay Kit (ThermoFischer) following manufacturer’s recommendations. Samples were ran in NuPAGETM 10% Bis-Tris Midi electrophoresis gels (Invitrogen) using NuPAGETM MES SDS running buffer (ThermoFischer Scientific).\n(§5) For western blotting membranes were blocked in a solution of 5% (w/v) bovine serum albumin (BSA; Sigma-Aldrich) dissolved in TBS-0.1% Tween 20 (Sigma-Aldrich) then incubated at 4°C overnight with the primary antibodies diluted in 5% (w/v) BSA/TBS-T. The membranes where then washed and incubated with anti-mouse and/or anti-rabbit secondary antibodies (LI-COR Biosciences) for 2h at RT diluted in 5% (w/v) BSA/TBS-T then washed and imaged using the LI-COR Odyssey (LI-COR Biosciences). Images were analyzed using Image Studio Lite software (LI-COR Biosciences)."}, "[1]": {"tested_on": "N-terminally tagged cMYC, RBM39, BRD4 (Flag-HA-DCD23 or Flag-HA-FKBP12^[F36V])", "assay": "Western blotting, iTAG versus dTAG fused proteins in SUM159", "description": "The fusion constructs were stably expressed in SUM159 cells and loss of protein was determined by western blotting.\nThe protein lysates were probed for HA using western blotting. […] The protein lysates were probed for HA using western blotting. […] Median EGFP intensity was measured in each condition using flow cytometry. (3 independent experiments, represented as mean ± SD).\nThe dTAG system has also been adapted to direct targets to the E3 CRL2^VHL using the PROTAC dTAG^V-1^16. […] We evaluated the degradation N-terminally tagged cMYC and RBM39 dTAG^V-1, we included BRD4 as a control as it was reported to be a well degraded target in the initial dTAG optimization (Figure 3C).[15]\nFor the pHAGE-PGK constructs: DCD23, SuperDegron and FKBP12^F36V were separately cloned into a pHAGE-PGK DEST backbone. cDNA encoding the indicated protein was then cloned from pENTR221 into the pHAGE-PGK-DCD23, pHAGE-PGK-SuperDegron or pHAGE-PGK-FKBPF36V DEST vector using Gateway cloning. SUM159 cells were transduced with the indicated lentivirus and selected with puromycin.\nas §4, with “Scientific). Proteins were subsequently transferred to an Immobilon-P polyvinylidene Difluoride (PVDF) membrane (Merck Millipore) using the wet-transfer method (Bio-Rad) in a transfer buffer consisting of 20% (v/v) methanol and 10% protein electrophoresis buffer (24.77 mM Tris and 0.192 M glycine).” for “Scientific).”\nas §5"}}, "note": "Peptide text beside a SMILES is read from it. * marks the point of attachment. Cbz = O=C(OCc1ccccc1)*", "data": [{"smiles": "Nc1cccc2c1C(=O)N(C1CCC(=O)NC1=O)C2=O", "note": "(centres unmarked) [Pomalidomide]", "values": [{"measurement": "loss of cMYC-EGFP signal", "setting": "cMYC-EGFP-DCD19", "value": "robust loss of cMYC-EGFP signal"}]}, {"smiles": "CC(C)C[C@@H](C=O)NC(=O)[C@H](CC(C)C)NC(=O)[C@H](CC(C)C)NC(=O)OCc1ccccc1", "note": "[MG132] (Cbz-Leu-Leu-Leu-aldehyde)", "values": [{"measurement": "effect on CC220-induced cMYC degradation", "setting": "cMYC-EGFP-DCD23", "value": "inhibited cMYC degradation"}]}, {"smiles": "O=C1CCC(N2C(=O)c3ccccc3C2=O)C(=O)N1", "note": "(centres unmarked) [Thalidomide]", "values": [{"measurement": "loss of cMYC-EGFP signal", "setting": "cMYC-EGFP-DCD19", "value": "robust loss of cMYC-EGFP signal"}]}, {"smiles": "Cc1nc2cccc(N)c2c(=O)n1C1CCC(=O)NC1=O", "note": "(centres unmarked) [CC122, Avadomide]", "values": [{"measurement": "loss of cMYC-EGFP signal", "setting": "cMYC-EGFP-DCD19", "value": "robust loss of cMYC-EGFP signal"}]}, {"smiles": "CC[C@H](C(=O)N1CCCC[C@H]1C(=O)O[C@H](CCc1ccc(OC)c(OC)c1)c1ccccc1OCC(=O)NCCCCCCC(=O)N[C@H](C(=O)N1C[C@H](O)C[C@H]1C(=O)N[C@@H](C)c1ccc(-c2scnc2C)cc1)C(C)(C)C)c1cc(OC)c(OC)c(OC)c1", "note": "[dTAG^V-1]", "values": [{"measurement": "degradation compared between dTAG variants", "setting": "[1]; SUM159, BRD4, cMYC, RBM39, 4h", "value": "more robust degradation compared to dTAG-13"}]}, {"smiles": "NS(=O)(=O)OC[C@@H]1C[C@@H](n2ccc3c(N[C@H]4CCc5ccccc54)ncnc32)C[C@@H]1O", "note": "[MLN4924]", "values": [{"measurement": "effect on CC220-induced cMYC degradation", "setting": "cMYC-EGFP-DCD23", "value": "inhibited cMYC degradation"}]}, {"smiles": "CC[C@H](C(=O)N1CCCC[C@H]1C(=O)O[C@H](CCc1ccc(OC)c(OC)c1)c1ccccc1OCC(=O)NCCCCCCOc1cccc2c1C(=O)N(C1CCC(=O)NC1=O)C2=O)c1cc(OC)c(OC)c(OC)c1", "note": "(some centres unmarked) [dTAG-13]", "values": [{"measurement": "concentrations at which targets are degraded", "setting": "[1]; SUM159, dTAG-13 on dTAG, CC220 on iTAG", "value": "less pronounced or even not observed at high concentrations"}, {"measurement": "time of onset of degradation of cMYC and RBM39", "setting": "[1]; SUM159, dTAG-13 on dTAG, CC220 on iTAG, 1, 2 or 4h", "value": "moderate degradation only after 4h"}]}]}
